According to patent US9428533B2, “Inhibitors of advanced glycation end products” (NephroGenex, Inc., priority 2006, dated 2016):

What was measured:
[1] = Redox metal ion binding affinity, visible spectroscopic titration (Cu2+); settings: visible spectroscopy, physiological pH; read-out: Cu^2+ Kd
Excerpt: (§1) The AGE inhibition by these types of compounds is believed to occur when the compounds interfere with the role of the required redox metal ions in the oxidative breakdown of the Amadori intermediates to advanced glycation end products (“glycoxidation”). […] These spectral titrations usually involve adding varying amounts of compound to a fixed amount of metal ion in a suitable buffer having low metal ion affinity under physiological pH conditions. In cases of extreme affinity, binding constants were estimated in a competitive assay mode.
(§2) Binding affinity is measured as the dissociation constants Kd (units of concentration). All measurements were done by visible spectroscopy by monitoring the spectrum of the complex formed by each compound near its wavelength maximum, which depends on the metal ion being studied.

[2] = Redox metal ion binding affinity, visible spectroscopic titration (Fe2+); settings: visible spectroscopy, 480 nm (430 nm for pyridoxamine); read-out: Fe^2+ Kd
Excerpt: as §1, §2

[3] = Redox metal ion binding affinity, visible spectroscopic titration (Fe3+); settings: visible spectroscopy, 480 nm (430 nm for pyridoxamine); read-out: Fe^3+ Kd
Excerpt: as §1, §2

[4] = test system: RNase-Amadori; assay: Post-Amadori AGE/CML ELISA inhibition assay; format: biochemical; settings: for IC50: 20 hours at 37° C.
Excerpt: Using a novel modification of the AGE Inhibition assay, we have determined the post-Amadori AGE inhibition potency for compounds of interest. The experiments were designed to determine the half-maximal inhibitory concentration of compounds (“IC50 values”) for inhibiting the conversion of Amadori intermediates to advanced glycation end products. The post Amadori AGE/CML ELISA assay has been developed to a 384 well format for rapidly testing potential inhibitors prepared from DMSO stocks. Assay signal to background ratios are high, at greater than 20:1. Results in this format for AGE inhibitors agree well with previous data, providing some measure of method validation, making the assay is robust and reliable. Compounds for testing were dissolved at 100 mM or their maximum concentration in 100% DMSO. […] A subset of compounds were not fully soluble in DMSO at concentrations as low as 10 mM. […] When necessary, the activity of compounds was subsequently confirmed in a more thorough repeat test against AGE formation from both RNase Amadori and BSA Amadori. Typically, from DMSO stocks, two stock plates were made. Each well contained 50 μL.
The stock plate #2 was then frozen at −20° C. during preparation. Later, stock plate #2 was removed from the freezer and allowed to thaw for 30 minutes. The compounds in the plate were then mixed repeatedly with a pipettor and diluted 5× into 0.01 N HCl in H2O.
Further dilutions were then carried out spanning two orders of magnitude of concentration. After the compounds were diluted, 10 ul of phosphate buffer was added to each well and mixed to neutralize the solution before protein addition. Next 15 μL of 0.333 mg/mL of RNase-Amadori in phosphate buffer was added from a stock of ribose-RNAse prepared at 10.7 mg/mL. These constitute the AGE reaction mixtures. All AGE reactions proceeded for 20 hours at 37° C. Reactions were then diluted 50 fold into coating buffer by 10× then 5× serial dilution. Coating proceeded at 37° C. for two hours. Final protein was 0.1 μg/well in 384 well plates (2 μg/mL). ELISA was carried out similarly to before using the primary antibody BST-3CK at 1:10000 dilution, and the secondary antibody labeled with DELPHIA Europium GAR at 1:4000 dilution.

[5] = test system: HepG2 cells; assay: Cell based toxicity assay (MTT); settings: fixed concentration 1 mM
Excerpt: Hepatotoxicity is one of the major causes of drug failure in the clinic. HepG2 cells are human cells derived from a liver tumor, and express many of the proteins and detoxification pathways of normal hepatocytes, and so make a reasonable model for initial cellular toxicity testing of candidate compounds. The test is based on the active conversion of 3-[4,5-dimethylthiazol-2-yl]-2,5-dephenyltetrazolium bromide (MTT) by mitochondrial oxidation-reduction reactions into blue formazan crystals. Decreased crystal formation corresponds to decreased cell viability. Azide and chlorpromazine served as a positive controls
10×MTT stock solution (5 mg/ml MTT in 0.9% NaCl)
0.04 N HCl in isopropanol
Compound stocks: 100 mM in 100% DMSO
MTT working solution: diluting 10×MTT stock into culture medium.
Test article in cell culture medium; Final DMSO concentration on the cells varies with the compound concentration (Final concentration of solvents such as DMSO should be kept at or below 1%)
• 1. Aspirate culture medium from HepG2 cells. Replace culture medium with test article dissolved in culture medium. • 2. Incubate in 37° C., 5% CO2 incubator for 16-24 hours. • 3. Aspirate the medium from the cells; replace with an equal volume of 37° C. MTT working solution. • 4. Incubate for 3 hours. • 5. Replace MTT solution with an equal volume of acidified isopropanol. • 6. […] Read the absorbance of the solution at 570 nm. […]

[6] = test system: male mice; settings: mouse, in vivo, po
Description: A seven day repeat oral gavage study was carried out in male mice in order to detect any obvious signs of clinical toxicity upon administration of BST-605. For comparison, two groups were dosed with BST-4997 and BST-146 (acetyl ester of BST-4997 that is rapidly hydrolyzed to parent BST-4997). Dosing was done daily at 10, 30 and 100 mg/kg/day, and blood draws were taken at the end of study at 1, 2, 4 and 8 h post-dosing.

[7] = In vivo plasma concentration and metabolites (HPLC fluorescence, LC-MS/MS); settings: for metabolites in plasma: mice plasma
Description: The plasma drawn from the mice in the above MTD study was examined by an HPLC fluorescence method for the presence of parent drug at different times as well as for the possible presence of metabolites. […] An HPLC fluorescence method was developed to assay for parent drugs and possible metabolites of each drug. The HPLC method was further adapted for LC-MS/MS study by changing from phosphoric acid to volatile 20 mM ammonium acetate.
Possible structures for the metabolites include the following: […]

[8] = test system: streptozotocin (STZ)-diabetic rats; assay: Efficacy study in STZ rat model of diabetic neuropathy (nerve conduction velocity); format: in vivo
Description: The STZ rat model has been described previously in WO 2004/019889. Our aim was to ascertain whether BST-605 treatment could correct nerve dysfunction in streptozotocin (STZ)-diabetic rats. Animals were made diabetic for 6 weeks, following which they were treated (n=6) for 2 weeks with BST-605 given in the drinking water at concentrations adjusted to correspond to doses of 0.22, 0.67 and 2.0 mg/kg/day. They were compared to control non-diabetic rats (n=10).
Motor NCV was tested between the sciatic notch and knee for the nerve branch to tibialis anterior muscle, as described in Cameron et al., Q. J. Exp. Physiol. 74:917-926 (1989); and Cameron et al, Exp. Neurol. 92:757-761 (1986).
Saphenous sensory NCV was measured between the groin and ankle.

[9] = Drug exposure in plasma of STZ rats at sacrifice; format: in vivo; settings: lowest two doses
Description: A determination of drug exposure was also made from plasma collected from STZ rats at sacrifice that were dosed at the lowest two doses. […] The detection of parent drugs and metabolites in the STZ rat, as in the mice plasma, confirms that sufficient exposure to the drug occurred in the studies so as to make the toxicity findings and in vivo efficacy reflective of drug administration.

[10] = test system: STZ rats; assay: Tissue staining for carboxymethyllysine (CML) AGEs in nerve vasculature; format: in vivo; settings: compared to diabetic controls
Excerpt: This was done by quantitative measurements of tissue staining for carboxymethyllysine (CML) AGEs, using anti-CML antibodies.

[11] = STZ rats, 2 weeks in drinking water, 0.22, 0.67 and 2.0 mg/kg/day

In the case of `Cc1ncc(CN2CCN(C)CC2)c(-c2ncc[nH]2)c1O` [BST-605], the Kd [1] is reported as 0.13 µM, the Kd [2] is reported as 720 µM and the Kd [3] is reported as 520 µM. The “Potency Relative to BST-4997” value [4] was 6, the “potency over BST-4997” value [4] was 6 fold and the potency over pyridoxamine [4] was 50 fold. The IC50 [4] was 100 µM, the “acute toxicity in HepG2 cell viability (MTT)” value [5] was “no acute toxicity” and the “clinical toxicity in MTD study” value [6] was “no adverse clinical signs or gross examination findings”. For the same compound, the metabolites in plasma [7] was “oxidized and/or undergone glucuronidation”, the “plasma concentration of parent drug versus dose” value ([7]; mice, plasma 1, 2, 4 and 8 h post-dosing, 10, 30 and 100 mg/kg/day) was “proportional to dose” and the “diabetic complications in STZ rat model” value ([8]; STZ rat model) was “ameliorates diabetic complications”. For the same compound, the “restoration of nerve conduction velocity in motor (sciatic nerve) neurons” value [8, 11] was “efficacy at very low concentrations”, the “restoration of nerve conduction velocity in sensory (saphenous) neurons” value [8, 11] was “efficacy at very low concentrations” and the “drug exposure in plasma” value [9] was “Drug exposure was observed and measured”.
`Cc1ncc(CO)c(-c2ncc[nH]2)c1O` [BST-4997, reference compound] gave a Kd [1] of 1.13 µM, a Kd [2] of 690 µM and a Kd [3] of 610 µM. The “Potency Relative to BST-4997” value [4] was “(1)”, the IC50 [4] was 600 µM and the “acute toxicity in HepG2 cell viability (MTT)” value [5] was “some evidence of toxicity”. The “clinical toxicity in MTD study” value [6] was “significant toxicity at and above 30 mg/kg/day”, the metabolites in plasma [7] was “oxidized and/or undergone glucuronidation” and the “AGE (CML) staining in the nerve vasculature” value [10] was “significant decrease in AGE staining”.
For `Cc1ncc(CO)c(CN)c1O` [Pyridoxamine, pyridoxamine, reference compound], the IC50 [4] was 5000 µM.
